Data from patent US20250221410A1, “SUBSTITUTED 2-C-AZINES AND SALTS THEREOF, AND USE THEREOF AS HERBICIDAL ACTIVE SUBSTANCES” (BAYER AKTIENGESELLSCHAFT, priority 2022, published 2025).

Key:
Format in all cases: in vivo
VERPE: Veronica persica = assay: Post-emergence herbicidal efficacy at 1280 g/ha, VERPE; conditions: visual rating about 3 weeks after treatment vs untreated controls
Procedure: (§1) Seeds of mono- and dicotyledonous weed plants were placed in plastic pots in sandy loam soil (doubly sown with in each case one species of mono- or dicotyledonous weed plants per pot), covered with soil and cultivated in a greenhouse under controlled growth conditions. 2 to 3 weeks after sowing, the test plants were treated at the one-leaf stage. The compounds of the invention, formulated in the form of wettable powders (WP) or as emulsion concentrates (EC), were applied to the green parts of the plants as aqueous suspension or emulsion with addition of 0.5% additive at a water application rate equivalent to 600 litres per hectare. After the test plants had been kept in the greenhouse under optimum growth conditions for about 3 weeks, the activity of the preparations was rated visually in comparison to untreated controls. For example, 100% activity=the plants have died, 0% activity=like control plants. Tables A1 to A12 below show the effects of selected compounds of the general formula (I) according to Table 1 on various harmful plants and at an application rate corresponding to 1280 g/ha, which were obtained by the trial procedure specified above.

[1] = tested on: AMARE: Amaranthus retroflexus; assay: Post-emergence herbicidal efficacy at 1280 g/ha, AMARE; conditions: rated visually after about 3 weeks vs untreated controls, 100% = plants have died, 0% = like control plants
Procedure: as §1

STEME: Stellaria media [2] = assay: Post-emergence herbicidal efficacy at 1280 g/ha, STEME; conditions: visual rating about 3 weeks after treatment vs untreated controls
Procedure: as §1

[3] = tested on: AMARE: Amaranthus retroflexus; assay: Pre-emergence herbicide efficacy at 1280 g/ha, AMARE; conditions: visual scoring after about 3 weeks vs untreated controls
Source text: (§2) Seeds of mono- and dicotyledonous weed plants were placed in plastic pots in sandy loam soil (doubly sown with one species each of mono- or dicotyledonous weed plants per pot) and covered with soil. The compounds of the invention, formulated in the form of wettable powders (WP) or as emulsion concentrates (EC), were then applied to the surface of the covering soil as aqueous suspension or emulsion with addition of 0.5% additive at a water application rate of 600 litres per hectare (converted). After the treatment, the pots were placed in a greenhouse and kept under good growth conditions for the test plants. After about 3 weeks, the efficacy of the preparations was scored visually in comparison with untreated controls as percentages. For example, 100% activity=the plants have died, 0% activity=like control plants. Tables C1 to C12 below show the effects of selected compounds of the general formula (I) according to Table 1 on various harmful plants and at an application rate corresponding to 1280 g/ha, which were obtained by the trial procedure specified above.

KCHSC: Kochia scoparia = assay: Post-emergence herbicidal efficacy at 1280 g/ha, KCHSC; conditions: visual rating about 3 weeks after treatment vs untreated controls
Procedure: as §1

[4] = tested on: ABUTH: Abutilon theophrasti; assay: Pre-emergence herbicide efficacy at 1280 g/ha, ABUTH; conditions: visual scoring after about 3 weeks vs untreated controls
Source text: as §2

[5] = tested on: ABUTH: Abutilon theophrasti; assay: Post-emergence herbicidal efficacy at 1280 g/ha, ABUTH; conditions: rated visually after about 3 weeks vs untreated controls, 100% = plants have died, 0% = like control plants
Procedure: as §1

POAAN: Poa annua [6] = assay: Post-emergence herbicidal efficacy at 1280 g/ha, POAAN; conditions: visual rating about 3 weeks after treatment vs untreated controls
Procedure: as §1

POAAN: Poa annua [7] = assay: Pre-emergence herbicide efficacy at 1280 g/ha, POAAN; conditions: visual scoring after about 3 weeks vs untreated controls
Source text: as §2

STEME: Stellaria media [8] = assay: Pre-emergence herbicide efficacy at 1280 g/ha, STEME; conditions: visual scoring vs untreated controls
Source text: as §2

[9] = tested on: DIGSA: Digitaria sanguinalis; assay: Pre-emergence herbicide efficacy at 1280 g/ha, DIGSA; conditions: visual scoring after about 3 weeks vs untreated controls
Source text: as §2

SETVI: Setaria viridis = assay: Pre-emergence herbicide efficacy at 1280 g/ha, SETVI; conditions: visual scoring vs untreated controls
Source text: as §2

SMILES | Post-emergence efficacy against VERPE (VERPE: Veronica persica) | Post-emergence efficacy at 1280 g/ha against AMARE in % [1] | Post-emergence efficacy against STEME (STEME: Stellaria media [2]) | Pre-emergence efficacy against AMARE [3] | Post-emergence efficacy against KCHSC (KCHSC: Kochia scoparia) | Pre-emergence efficacy against ABUTH [4] | Post-emergence efficacy at 1280 g/ha against ABUTH in % [5] | Post-emergence efficacy against POAAN (POAAN: Poa annua [6]) | Pre-emergence efficacy against POAAN (POAAN: Poa annua [7]) | Pre-emergence efficacy against STEME in % (STEME: Stellaria media [8]) | Pre-emergence efficacy against DIGSA [9] | Pre-emergence efficacy against SETVI in % (SETVI: Setaria viridis)
Cc1cccc(C(C#N)c2ncc(Cl)cn2)c1Oc1ccc(F)cc1 (racemic) [Example 1-30] | 90% | – | – | – | – | – | – | – | – | – | – | –
COc1cccc(C(C#N)c2ncc(Cl)cn2)c1Oc1ccc(F)cc1 (racemic) [Example 1-32] | 90% | 90% | 90% | 90% | – | – | – | – | – | – | – | –
N#CC(c1ncc(Cl)cn1)c1cccc(Br)c1Oc1ccc(F)cc1 (racemic) [Example 1-36] | 90% | – | – | – | – | – | – | – | – | – | – | –
N#CC(c1ncc(Cl)cn1)c1cccc(C(F)(F)F)c1Oc1ccc(F)cc1 (racemic) [Example 1-39] | 100% | – | – | – | 90% | 100% | – | – | – | – | – | –
N#CC(c1ncc(Cl)cn1)c1ccccc1-n1cc(C(F)(F)F)cn1 (racemic) [Example 1-41] | 90% | 90% | – | – | – | – | 90% | 90% | 90% | – | – | –
Fc1cnc(Cc2ccccc2CCCC(F)(F)F)nc1 [Example 1-3] | 90% | 90% | 90% | – | 90% | – | 90% | 100% | – | – | – | –
N#CC(c1ncc(Cl)cn1)c1cccc(F)c1Oc1ccc(F)cc1 (stereo not drawn) [Example 1-34, (5-Chloropyrimidin-2-yl)[3-fluoro-2-(4-fluorophenoxy)phenyl]acetonitrile] | 100% | 90% | 90% | 90% | – | – | – | – | – | 90% | – | –
N#CC(c1ncc(Cl)cn1)c1ccccc1CCCC(F)(F)F (stereo not drawn) [Example 1-68] | – | 100% | – | – | – | – | – | – | – | – | – | –
N#CC(c1ncc(Cl)cn1)c1ccccc1Cc1ccc(F)cc1 (stereo not drawn) [Example 1-69] | 100% | 90% | 90% | – | 90% | 100% | – | – | – | – | – | –
N#Cc1cccc(C(C#N)c2ncc(Cl)cn2)c1-n1cc(C(F)(F)F)cn1 (stereo not drawn) [Example 1-71] | 90% | 100% | 90% | 100% | 100% | – | – | – | – | 90% | – | –
N#CC(c1ncc(F)cn1)c1ccccc1CCCC(F)(F)F (stereo not drawn) [Example 1-72] | – | – | – | – | – | – | – | – | 90% | – | – | –
N#CC(c1ccc(Cl)cn1)c1ccccc1CCCC(F)(F)F (stereo not drawn) [Example 1-73] | 90% | 90% | – | 90% | – | – | – | – | – | – | – | –
N#CC(c1ncc(Cl)cn1)c1ccccc1-c1ccc(F)c(F)c1 (stereo not drawn) [Example 1-78] | – | 90% | – | – | – | – | – | – | 90% | – | – | –
N#CC(c1ncc(F)cn1)c1ccccc1-c1ccc(F)c(F)c1 (stereo not drawn) [Example 1-79] | – | – | – | – | – | – | – | – | 90% | – | – | –
N#CC(c1ccc(Cl)cn1)c1ccccc1-c1ccc(F)c(F)c1 (stereo not drawn) [Example 1-80] | 90% | 100% | 90% | 100% | – | 90% | – | – | 90% | 100% | – | –
N#CC(c1ccc(Cl)cn1)c1ccccc1Cc1ccc(F)cc1 (stereo not drawn) [Example 1-82] | 90% | 100% | – | 100% | 90% | 100% | – | – | 90% | 100% | – | –
FC(F)(F)CCCc1ccccc1Cc1ccc(Cl)cn1 [Example 1-94] | 100% | 90% | – | – | – | – | – | 90% | – | – | – | –
Fc1ccc(-c2ccccc2Cc2ccc(Cl)cn2)cc1F [Example 1-97] | 100% | 100% | 90% | 100% | 100% | – | 100% | 100% | – | – | – | –
Fc1cnc(Cc2ccccc2SCCC(F)(F)F)nc1 [Example 1-111] | 100% | 100% | 100% | 100% | 100% | – | 90% | 100% | – | – | 90% | –
Clc1cnc(Cc2ccccc2Sc2ccc(Cl)cc2Cl)nc1 [Example 1-137] | 90% | 100% | 90% | 100% | 90% | – | 90% | 90% | 90% | 100% | – | 100%
Cc1cc(C)c(-c2cc(C(F)F)no2)c(C(C#N)c2ncc(Cl)cn2)n1 (stereo not drawn) [Example 2-6] | – | – | – | 90% | – | 100% | – | – | – | 100% | 90% | –
